# Measurements published in US20230264009A1, “DISINFECTING CAP KIT FOR LUER ACCESS DEVICES” (SterileCare Inc., priority 2022, published 2023).
# Columns and labels:
# E. coli SK2 [1] = assay: Checkerboard titration, FICI; type: cell-based, Escherichia coli
# Experimental: (§1) A fourth composition and solution included tetrasodium EDTA with ethanol or chlorhexidine HCl. This fourth composition and solution were created using checkerboard titration methods using micro broth dilution in 96-well microtiter plates. The concentrations of antimicrobials used were based on previously determined MIC values. Briefly, 200 µL of two-fold dilutions of tetrasodium EDTA and ethanol or chlorhexidine HCl were prepared in MH or MH II broth with standardized cell suspension. […] Microtiter plates were incubated at 37° C. for 24 h, and the results were analyzed. Each test was performed in duplicate and included a growth control without adding any antimicrobials.
# C. albicans ON47 = assay: Checkerboard titration, FICI; type: cell-based, Candida albicans
# Experimental: as §1
# MRSA ON184 [2] = assay: MBC/MFC determination; type: cell-based, Staphylococcus aureus; details: alone
# Experimental: (§2) An assay was made using a minimum inhibitory concentration (MIC) and minimum bactericidal concentration (MBC) and minimum fungicidal concentration (MFC) determination. The MIC was determined by the micro broth dilution method in 96-well plates. Serial two-fold dilutions of tetrasodium EDTA (from 2% to 0.015%), ethanol (from 50% to 0.1%) and chlorhexidine HCl (from 100 µg/mL to 0.025 µg/mL) were prepared in MH broth with a final volume of 90 µL per well. A 10 µL containing 1 × 10^5 bacterial cells or 2 × 10^3 fungal cells were added to each well. The inoculated plates were covered with a lid, sealed with Parafilm, and incubated for 24 h at 37° C. with slight rocking on a tilting platform shaker. After incubation, the optical density at 600 nm (OD 600 ) of the cultures in each well was measured using an xMark™ Microplate Absorbance Spectrophotometer (Bio-Rad). […] MBCs and MFCs were determined by transferring 100 µL from each well with no apparent growth onto appropriate agar plates, followed by incubation for 24 h at 37° C.
# E. coli SK2 [3] = assay: MBC/MFC determination; type: cell-based, Escherichia coli; details: alone
# Experimental: as §2
# S. epidermidis SK9 [4] = assay: MIC, micro broth dilution; type: cell-based, Staphylococcus epidermidis; details: alone, 24 h
# Experimental: as §2
# MRSA ON184 [5] = assay: Checkerboard titration, FICI; type: cell-based, Staphylococcus aureus
# Experimental: as §1
# Serratia marcescens SK2 [6] = assay: Checkerboard titration, FICI; type: cell-based; details: S. marcescens SK2
# Experimental: as §1
# Escherichia coli ON29 [7] = assay: Checkerboard titration, FICI; type: cell-based; details: E. coli ON29
# Experimental: as §1
# [8] = test system: Stenotrophomonas maltophilia ON17; assay: Checkerboard titration, FICI; type: cell-based; details: S. maltophilia ON17
# Experimental: as §1
# [9] = test system: Staphylococcus epidermidis ON170; assay: Checkerboard titration, FICI; type: cell-based; details: S. epidermidis ON170
# Experimental: as §1
# [10] = test system: Pseudomonas aeruginosa SK1; assay: Checkerboard titration, FICI; type: cell-based; details: P. aeruginosa SK1
# Experimental: as §1
# Proteus mirabilis ON153 [11] = assay: Checkerboard titration, FICI; type: cell-based; details: P. mirabilis ON153
# Experimental: as §1
# Candida albicans SK4b [12] = assay: Checkerboard titration, FICI; type: cell-based; details: C. albicans SK4b
# Experimental: as §1
# [13] = test system: Staphylococcus aureus ON89; assay: Checkerboard titration, FICI; type: cell-based; details: S. aureus ON89
# Experimental: as §1
# Serratia marcescens SK2 [14] = assay: MIC, micro broth dilution; type: cell-based; details: alone; S. marcescens SK2; 24 h
# Experimental: as §2
# Escherichia coli ON29 [15] = assay: MIC, micro broth dilution; type: cell-based; details: alone; E. coli ON29; 24 h
# Experimental: as §2
# [16] = test system: Stenotrophomonas maltophilia ON17; assay: MIC, micro broth dilution; type: cell-based; details: alone; S. maltophilia ON17; 24 h
# Experimental: as §2
# [17] = test system: Staphylococcus epidermidis ON170; assay: MIC, micro broth dilution; type: cell-based; details: alone; S. epidermidis ON170; 24 h
# Experimental: as §2
# [18] = test system: Pseudomonas aeruginosa SK1; assay: MIC, micro broth dilution; type: cell-based; details: alone; P. aeruginosa SK1; 24 h
# Experimental: as §2
# Proteus mirabilis ON153 [19] = assay: MIC, micro broth dilution; type: cell-based; details: alone; P. mirabilis ON153; 24 h
# Experimental: as §2
# Candida albicans SK4b [20] = assay: MIC, micro broth dilution; type: cell-based; details: alone; C. albicans SK4b; 24 h
# Experimental: as §2
# [21] = test system: Staphylococcus aureus ON89; assay: MIC, micro broth dilution; type: cell-based; details: alone; S. aureus ON89; 24 h
# Experimental: as §2
# C. albicans ON47 biofilm = assay: FBEC index, checkerboard dilution on biofilms; type: cell-based, Candida albicans
# Experimental: (§3) In step (4), microtiter plates are incubated at 37° C. for 24 h. then (6), after incubation, the bacterial and fungal cells were dislodged from the pegs into the recovery medium described above.
# (§4) Three 10-µL aliquots, for a total of 30 µL from each well of recovery medium, were spotted on MH agar plates and incubated for 24 h at 37° C. […] The FBEC determination is a modification of the FICI.
# S. epidermidis SK9 [22] = assay: MBC/MFC determination; type: cell-based, Staphylococcus epidermidis; details: alone
# Experimental: as §2
# E. coli SK2 [23] = assay: Checkerboard titration, FMCI; type: cell-based, Escherichia coli
# Experimental: as §2, §1
# S. epidermidis SK9 [24] = assay: Checkerboard titration, FICI; type: cell-based, Staphylococcus epidermidis
# Experimental: as §1
# MRSA ON184 biofilm = assay: FBEC index, checkerboard dilution on biofilms; type: cell-based, Staphylococcus aureus
# Experimental: as §3, §4
# [25] = tetrasodium EDTA + chlorhexidine HCl
structure (smiles),measurement,setting,value
"O=C([O-])CN(CCN(CC(=O)[O-])CC(=O)[O-])CC(=O)[O-].[Na+].[Na+].[Na+].[Na+] [EDTA, tetrasodium EDTA]",Concentration in combination giving FICI,E. coli SK2 [1]; [25],0.008 % w/v
same,Concentration in combination giving FICI,E. coli SK2 [1]; tetrasodium EDTA + ethanol,0.015 % w/v
same,Concentration in combination giving FICI,C. albicans ON47; [25],0.125 % w/v
same,Concentration in combination giving FICI,C. albicans ON47; tetrasodium EDTA + ethanol,0.25 % w/v
same,MBC/MFC,MRSA ON184 [2],2 % w/v
same,MBC/MFC,E. coli SK2 [3],0.5 % w/v
same,MIC,S. epidermidis SK9 [4],0.063 % w/v
same,Concentration in combination giving FICI,MRSA ON184 [5]; [25],0.008 % w/v
same,Concentration in combination giving FICI,MRSA ON184 [5]; tetrasodium EDTA + ethanol,0.015 % w/v
same,Concentration in combination giving FICI,Serratia marcescens SK2 [6]; [25],0.063 % w/v
same,Concentration in combination giving FICI,Serratia marcescens SK2 [6]; tetrasodium EDTA + ethanol,0.5 % w/v
same,Concentration in combination giving FICI,Escherichia coli ON29 [7]; [25],0.008 % w/v
same,Concentration in combination giving FICI,Escherichia coli ON29 [7]; tetrasodium EDTA + ethanol,0.25 % w/v
same,Concentration in combination giving FICI,[8]; [25],0.015 % w/v
same,Concentration in combination giving FICI,[8]; tetrasodium EDTA + ethanol,0.031 % w/v
same,Concentration in combination giving FICI,[9]; [25],0.063 % w/v
same,Concentration in combination giving FICI,[9]; tetrasodium EDTA + ethanol,0.015 % w/v
same,Concentration in combination giving FICI,[10]; [25],0.5 % w/v
same,Concentration in combination giving FICI,[10]; tetrasodium EDTA + ethanol,0.031 % w/v
same,Concentration in combination giving FICI,Proteus mirabilis ON153 [11]; [25],0.063 % w/v
same,Concentration in combination giving FICI,Proteus mirabilis ON153 [11]; tetrasodium EDTA + ethanol,0.5 % w/v
same,Concentration in combination giving FICI,Candida albicans SK4b [12]; [25],0.063 % w/v
same,Concentration in combination giving FICI,Candida albicans SK4b [12]; tetrasodium EDTA + ethanol,0.25 % w/v
same,Concentration in combination giving FICI,[13]; [25],0.008 % w/v
same,Concentration in combination giving FICI,[13]; tetrasodium EDTA + ethanol,0.015 % w/v
same,MIC,Serratia marcescens SK2 [14],2 % w/v
same,MIC,Escherichia coli ON29 [15],0.5 % w/v
same,MIC,[16],0.063 % w/v
same,MIC,[17],0.063 % w/v
same,MIC,[18],0.25 % w/v
same,MIC,Proteus mirabilis ON153 [19],1 % w/v
same,MIC,Candida albicans SK4b [20],1 % w/v
same,MIC,[21],0.063 % w/v
same,FBEC (concentration in combination),C. albicans ON47 biofilm; [25],0.031 % w/v
same,FBEC (concentration in combination),C. albicans ON47 biofilm; tetrasodium EDTA + ethanol,0.125 % w/v
same,MBC/MFC,S. epidermidis SK9 [22],0.5 % w/v
same,Concentration in combination giving FMCI,E. coli SK2 [23]; [25],0.015 % w/v
same,Concentration in combination giving FMCI,E. coli SK2 [23]; tetrasodium EDTA + ethanol,0.25 % w/v
same,Concentration in combination giving FICI,S. epidermidis SK9 [24]; [25],0.015 % w/v
same,Concentration in combination giving FICI,S. epidermidis SK9 [24]; tetrasodium EDTA + ethanol,0.015 % w/v
same,FBEC (concentration in combination),MRSA ON184 biofilm; [25],0.031 % w/v
same,FBEC (concentration in combination),MRSA ON184 biofilm; tetrasodium EDTA + ethanol,0.063 % w/v
